According to ChEMBL document CHEMBL1125846, “Reevaluating equilibrium and kinetic binding parameters for lipophilic drugs based on a structural model for drug interaction with biological membranes” (J Med Chem, 1991):

How the values were obtained:
Rattus norvegicus [1] = species on record: Rattus norvegicus; experiment: Equilibrium dissociation constant based on membrane concentration in rat smooth muscle; format: ADME, Muscle tissue
Rattus norvegicus [2] = species on record: Rattus norvegicus; experiment: Equilibrium dissociation constant based on aqueous concentration in rat smooth muscle; format: ADME, Muscle tissue
[3] = Partition coefficient of compound in to octanol/buffer; format: physicochemical; details: octanol/water
[4] = sarcoplasmic reticulum membrane
Description: Partition coefficient of compound in to biological membranes

Rattus norvegicus [5] = species on record: Rattus norvegicus; experiment: Equilibrium dissociation constant based on membrane concentration in rat cardiac muscle

Compound | Kd (Rattus norvegicus [1]) | Kd (Rattus norvegicus [2]) | Partition coefficient [3] | Partition coefficient [4] | Kd (Rattus norvegicus [5])
CCOC(=O)C1=C(COCCN)NC(C)=C(C(=O)OC)C1c1ccccc1Cl (stereo not drawn) [AMLODIPINE] | 23000 nM | 1.2 nM | 30 | 19000 | 
CN/C(=N/CCSCc1nc[nH]c1C)NC#N [CIMETIDINE] |  |  | 1 |  | 
COC(=O)C1=C(C)NC(C)=C(C(=O)OC)C1c1ccccc1[N+](=O)[O-] [NIFEDIPINE] | 23000 nM | 0.41 nM |  |  | 
COCCOC(=O)C1=C(C)NC(C)=C(C(=O)OC(C)C)C1c1cccc([N+](=O)[O-])c1 (stereo not drawn) [NIMODIPINE] | 690 nM | 0.11 nM | 730 | 6300 | 
COC(=O)C1=C(C)NC(C)=C(C(=O)OCC(C)C)C1c1ccccc1[N+](=O)[O-] (stereo not drawn) [NISOLDIPINE] |  | 0.14 nM | 40 | 13000 | 1800 nM
CC(C)NCC(O)COc1cccc2ccccc12 (stereo not drawn) [PROPRANOLOL] |  |  | 18 | 1200 | 
CC(C)(C)NC[C@H](O)COc1nsnc1N1CCOCC1 [TIMOLOL] |  |  | 0.7 |  | 
